Reference: patent publication US4576948A, “Composition and method for inhibiting terminal deoxyribonucleotidyl transferase activity” (Trustees Boston University, priority 1983, dated 1986)

Experiments:
HeLa cell polymerase α [1] = molecular target: T1, HeLa cell polymerase α (Homo sapiens, UniProt P09884); assay: DNA polymerase α assay, standard assay conditions; type: biochemical; conditions: for effect on HeLa cell polymerase α (in words): 400 μM; for CMP Incorporated, Pol α: additive at 400 M (so in the source), DMSO control 15,040
T1 sequence (P09884 whole entry): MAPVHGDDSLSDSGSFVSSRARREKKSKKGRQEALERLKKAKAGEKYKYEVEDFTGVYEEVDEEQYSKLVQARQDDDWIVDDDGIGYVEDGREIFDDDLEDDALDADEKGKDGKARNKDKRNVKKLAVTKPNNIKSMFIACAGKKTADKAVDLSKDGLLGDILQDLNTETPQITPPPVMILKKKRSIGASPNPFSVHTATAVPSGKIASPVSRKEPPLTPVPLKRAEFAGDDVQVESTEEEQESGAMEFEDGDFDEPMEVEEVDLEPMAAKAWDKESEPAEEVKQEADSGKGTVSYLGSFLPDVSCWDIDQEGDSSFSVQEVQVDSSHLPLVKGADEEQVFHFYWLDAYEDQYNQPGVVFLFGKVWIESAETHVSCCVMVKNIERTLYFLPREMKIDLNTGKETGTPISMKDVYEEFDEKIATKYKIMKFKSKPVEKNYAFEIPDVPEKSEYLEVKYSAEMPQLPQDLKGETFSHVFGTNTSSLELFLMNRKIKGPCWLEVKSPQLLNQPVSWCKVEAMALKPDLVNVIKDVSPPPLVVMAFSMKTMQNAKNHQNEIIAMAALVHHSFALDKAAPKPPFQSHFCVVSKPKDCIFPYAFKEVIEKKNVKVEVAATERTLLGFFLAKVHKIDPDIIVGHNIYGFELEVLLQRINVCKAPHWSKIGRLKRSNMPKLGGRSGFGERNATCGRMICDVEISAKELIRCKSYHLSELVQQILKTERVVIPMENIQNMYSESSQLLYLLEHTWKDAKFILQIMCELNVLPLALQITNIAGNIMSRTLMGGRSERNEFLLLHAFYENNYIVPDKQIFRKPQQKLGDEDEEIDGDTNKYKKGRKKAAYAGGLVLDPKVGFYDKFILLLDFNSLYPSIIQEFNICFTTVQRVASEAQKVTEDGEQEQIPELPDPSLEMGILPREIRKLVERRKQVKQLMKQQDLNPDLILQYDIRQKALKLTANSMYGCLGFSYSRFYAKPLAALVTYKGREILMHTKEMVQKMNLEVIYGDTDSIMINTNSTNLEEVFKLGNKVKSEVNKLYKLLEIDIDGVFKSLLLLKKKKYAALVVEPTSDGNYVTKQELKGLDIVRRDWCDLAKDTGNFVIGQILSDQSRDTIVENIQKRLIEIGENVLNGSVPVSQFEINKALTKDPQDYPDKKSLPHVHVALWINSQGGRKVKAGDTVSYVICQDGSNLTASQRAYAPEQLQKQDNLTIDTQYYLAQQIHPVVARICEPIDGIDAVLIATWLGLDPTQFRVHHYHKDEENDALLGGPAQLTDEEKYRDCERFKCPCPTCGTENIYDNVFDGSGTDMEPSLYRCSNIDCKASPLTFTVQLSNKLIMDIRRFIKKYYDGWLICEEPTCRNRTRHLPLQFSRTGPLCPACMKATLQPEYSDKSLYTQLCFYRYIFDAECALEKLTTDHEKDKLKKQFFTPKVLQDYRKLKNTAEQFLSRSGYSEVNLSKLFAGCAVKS
T1 sequence (Q14181 whole entry partner): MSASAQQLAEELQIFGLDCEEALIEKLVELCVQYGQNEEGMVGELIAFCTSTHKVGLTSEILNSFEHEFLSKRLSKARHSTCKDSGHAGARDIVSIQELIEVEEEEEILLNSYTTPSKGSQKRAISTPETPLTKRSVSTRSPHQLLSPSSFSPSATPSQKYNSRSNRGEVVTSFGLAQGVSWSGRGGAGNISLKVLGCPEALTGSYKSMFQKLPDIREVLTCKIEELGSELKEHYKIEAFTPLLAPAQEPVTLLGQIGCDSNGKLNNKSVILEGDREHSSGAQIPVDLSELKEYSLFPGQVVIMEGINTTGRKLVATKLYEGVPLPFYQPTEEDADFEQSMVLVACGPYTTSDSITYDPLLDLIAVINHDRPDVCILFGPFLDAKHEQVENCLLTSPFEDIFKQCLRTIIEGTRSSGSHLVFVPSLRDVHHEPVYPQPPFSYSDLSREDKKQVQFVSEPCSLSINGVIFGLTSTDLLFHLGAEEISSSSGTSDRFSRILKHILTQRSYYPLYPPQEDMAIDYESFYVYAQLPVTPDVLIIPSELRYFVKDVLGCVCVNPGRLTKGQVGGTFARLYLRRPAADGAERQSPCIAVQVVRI
T1 sequence (P49642 whole entry partner): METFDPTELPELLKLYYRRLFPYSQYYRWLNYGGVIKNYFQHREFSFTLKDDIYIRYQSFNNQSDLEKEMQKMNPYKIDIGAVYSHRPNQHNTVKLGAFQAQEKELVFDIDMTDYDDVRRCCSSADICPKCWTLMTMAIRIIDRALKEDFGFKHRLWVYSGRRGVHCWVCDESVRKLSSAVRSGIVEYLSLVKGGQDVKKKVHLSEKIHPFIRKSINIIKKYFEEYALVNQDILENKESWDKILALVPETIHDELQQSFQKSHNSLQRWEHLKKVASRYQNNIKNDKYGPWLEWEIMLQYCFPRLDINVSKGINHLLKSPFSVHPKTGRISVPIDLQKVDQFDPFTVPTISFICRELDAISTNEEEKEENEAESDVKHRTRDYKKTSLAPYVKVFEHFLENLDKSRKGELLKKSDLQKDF
T1 sequence (P49643 whole entry partner): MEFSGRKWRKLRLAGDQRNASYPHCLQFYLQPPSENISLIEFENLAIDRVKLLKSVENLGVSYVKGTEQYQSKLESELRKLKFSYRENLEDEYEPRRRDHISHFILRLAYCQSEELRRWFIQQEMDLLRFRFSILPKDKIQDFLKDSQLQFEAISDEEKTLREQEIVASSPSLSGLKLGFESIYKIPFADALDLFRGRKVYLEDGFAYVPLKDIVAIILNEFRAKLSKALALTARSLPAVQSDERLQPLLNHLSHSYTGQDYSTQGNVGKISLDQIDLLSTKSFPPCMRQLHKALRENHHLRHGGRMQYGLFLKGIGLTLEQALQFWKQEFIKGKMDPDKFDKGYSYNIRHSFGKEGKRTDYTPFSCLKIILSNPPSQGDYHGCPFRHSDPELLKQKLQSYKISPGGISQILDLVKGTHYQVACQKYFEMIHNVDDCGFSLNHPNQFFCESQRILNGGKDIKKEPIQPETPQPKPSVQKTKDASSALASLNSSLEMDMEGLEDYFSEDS
Protocol: (§1) TdT was purified from normal calf thymus gland by a procedure utilizing the successive steps of homogenization, ion exchange […] and gel filtration. Bollum et al, "The Enzymes", (R. D. Boxer Ed.) pp. 145-171, Academic Press, New York. TdT was assayed at 35° C. for 1 hour in 0.1 ml total volume of a reaction mixture comprising 0.05 M Tris-HCl (pH 8.3), 2 mM […], 0.6 mM MnCl2, 10 μg bovine serum albumin (BSA), 1 μg oligodA14-18, 10 μM ^3 H-dGTP (d-triphosphate) and chelex distilled H2 O. When used, the 6-anilinouracil derivates were added at various concentrations in 5 μl DMSO per 100 μl reaction mix. Other DNA polymerases (α, β, and γ) were assayed using standard assay conditions, as previously described by Wright, Baril and Brown, Nucleic Acids Research, Vol. 8, No. 1, pp. 99-109, 1980.

[2] = molecular target: T2, terminal deoxyribonucleotidyl transferase (TdT) (Bos taurus, UniProt P06526); assay: TdT assay (3H-dGMP incorporation) with purified TdT; type: biochemical, calf; conditions: for CMP 3H--dGMP inc.: 200 μM compound, 35° C., 1 hour, 10 μM 3H-dGTP, DMSO only control 12,131; for CMP Incorporated, TdT: additive at 400 M (so in the source), DMSO control 12,131; for TdT inhibition (in words): concentration not given
T2 construct: classical preparation may be proteolysed two-subunit form of one gene product
T2 sequence (P06526 whole entry): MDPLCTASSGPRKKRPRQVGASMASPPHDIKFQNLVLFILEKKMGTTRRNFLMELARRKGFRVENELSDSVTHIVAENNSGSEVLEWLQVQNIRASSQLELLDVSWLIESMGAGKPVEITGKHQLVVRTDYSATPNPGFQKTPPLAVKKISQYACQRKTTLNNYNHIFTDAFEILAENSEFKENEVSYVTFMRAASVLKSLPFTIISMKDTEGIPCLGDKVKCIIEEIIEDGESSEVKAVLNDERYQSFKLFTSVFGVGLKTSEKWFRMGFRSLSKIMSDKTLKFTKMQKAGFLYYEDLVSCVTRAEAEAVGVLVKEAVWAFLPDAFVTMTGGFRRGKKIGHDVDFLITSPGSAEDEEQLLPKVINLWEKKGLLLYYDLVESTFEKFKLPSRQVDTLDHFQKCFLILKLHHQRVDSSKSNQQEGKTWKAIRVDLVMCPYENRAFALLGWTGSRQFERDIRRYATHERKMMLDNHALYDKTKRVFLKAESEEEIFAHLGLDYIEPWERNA
Protocol: as §1
Reaction conditions used were as noted above.

HeLa cell polymerase γ = molecular target: T3, HeLa cell polymerase γ (Homo sapiens, UniProt P54098); assay: DNA polymerase γ assay, standard assay conditions; type: biochemical; conditions: for effect on HeLa cell polymerase γ (in words): 400 μM; for CMP Incorporated, Pol γ: additive at 400 M (so in the source), DMSO control 7,490
T3 sequence (P54098 1-1239): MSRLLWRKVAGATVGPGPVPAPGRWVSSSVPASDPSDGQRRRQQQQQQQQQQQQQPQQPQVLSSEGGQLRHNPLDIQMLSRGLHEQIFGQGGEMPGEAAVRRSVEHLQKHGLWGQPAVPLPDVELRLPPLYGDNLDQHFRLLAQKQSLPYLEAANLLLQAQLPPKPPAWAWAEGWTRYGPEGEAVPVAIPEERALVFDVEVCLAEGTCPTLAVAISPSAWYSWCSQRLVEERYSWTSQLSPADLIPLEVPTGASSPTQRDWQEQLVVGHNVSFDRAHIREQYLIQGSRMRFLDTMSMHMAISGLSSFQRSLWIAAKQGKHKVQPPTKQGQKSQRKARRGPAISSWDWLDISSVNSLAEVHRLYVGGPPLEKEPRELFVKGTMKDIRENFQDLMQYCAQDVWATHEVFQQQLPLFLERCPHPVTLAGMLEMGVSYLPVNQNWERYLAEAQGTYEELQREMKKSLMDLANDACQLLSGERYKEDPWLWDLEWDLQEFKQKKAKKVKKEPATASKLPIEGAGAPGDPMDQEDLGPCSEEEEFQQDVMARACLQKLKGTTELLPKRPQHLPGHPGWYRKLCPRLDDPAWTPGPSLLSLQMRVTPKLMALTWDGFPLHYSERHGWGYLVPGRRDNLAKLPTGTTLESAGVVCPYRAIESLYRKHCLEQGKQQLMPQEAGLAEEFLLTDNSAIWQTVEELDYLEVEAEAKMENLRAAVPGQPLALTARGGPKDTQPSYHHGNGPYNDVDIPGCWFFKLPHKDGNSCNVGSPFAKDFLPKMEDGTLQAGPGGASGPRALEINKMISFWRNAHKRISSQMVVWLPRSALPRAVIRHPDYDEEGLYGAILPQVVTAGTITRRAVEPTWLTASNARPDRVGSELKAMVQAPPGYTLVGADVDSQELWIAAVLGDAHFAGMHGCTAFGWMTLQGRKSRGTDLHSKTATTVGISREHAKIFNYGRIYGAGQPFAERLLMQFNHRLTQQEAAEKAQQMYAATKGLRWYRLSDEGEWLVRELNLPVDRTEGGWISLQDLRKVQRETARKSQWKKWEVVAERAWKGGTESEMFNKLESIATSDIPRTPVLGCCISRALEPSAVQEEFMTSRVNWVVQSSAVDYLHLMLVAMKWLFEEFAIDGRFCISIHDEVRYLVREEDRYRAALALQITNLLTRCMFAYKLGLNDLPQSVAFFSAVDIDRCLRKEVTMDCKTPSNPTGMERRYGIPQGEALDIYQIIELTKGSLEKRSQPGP
T3 sequence (Q9UHN1 2-485 partner): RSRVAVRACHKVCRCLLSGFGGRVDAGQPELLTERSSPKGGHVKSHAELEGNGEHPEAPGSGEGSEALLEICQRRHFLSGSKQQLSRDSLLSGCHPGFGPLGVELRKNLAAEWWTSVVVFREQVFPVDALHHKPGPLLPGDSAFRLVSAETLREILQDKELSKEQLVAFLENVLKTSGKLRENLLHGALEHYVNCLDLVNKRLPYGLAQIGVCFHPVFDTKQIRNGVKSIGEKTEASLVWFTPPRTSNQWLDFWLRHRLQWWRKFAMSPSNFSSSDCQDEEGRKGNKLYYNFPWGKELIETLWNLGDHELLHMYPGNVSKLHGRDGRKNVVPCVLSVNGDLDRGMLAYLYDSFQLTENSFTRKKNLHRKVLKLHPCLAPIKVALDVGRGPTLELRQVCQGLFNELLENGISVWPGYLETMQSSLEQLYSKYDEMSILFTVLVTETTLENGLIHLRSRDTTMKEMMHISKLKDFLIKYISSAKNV
Protocol: as §1

HeLa cell polymerase β = HeLa cell polymerase β (Homo sapiens, UniProt P06746); assay: DNA polymerase β assay, standard assay conditions; type: biochemical; conditions: for effect on HeLa cell polymerase β (in words): 400 μM; for CMP Incorporated, Pol β: additive at 400 M (so in the source), DMSO control 5,221
Protocol: as §1

L1210 cells = assay: Inhibition of cell proliferation, L1210 (TdT-negative); type: cell-based, Mouse; conditions: even at 400 μM; 1% DMSO; viable cells at 72 hours
Protocol: (§2) HeLa cells, El-4cells, L1210 cells were grown in suspended cell culture under standard conditions in RPMI medium, at 37° C. in moist air containing 5% CO2. All inhibitions were performed using a final concentration of 1% DMSO as inhibitor solvent. Control cells were therefore grown in the presence of 1% DMSO.
(§3) Compound GW18C (6-(p-aminoanilo) uracil) was prepared as a 40 mM stock solution in pre-heated DMSO. This stock solution was progressively diluted to give a range of operating inhibitory concentrations between 1×10^-9 M and […]. Inhibition was measured by comparing the number of viable cells in control cultures at the end of 72 hours with the number in cultures exposed to inhibitor.

HeLa cells [3] = assay: Inhibition of cell proliferation, HeLa (TdT-negative); type: cell-based, Human; conditions: even at 400 μM; 1% DMSO; viable cells at 72 hours
Protocol: as §2, §3

EL-4 = assay: Inhibition of cell proliferation, EL-4 (TdT-positive); type: cell-based, Mouse
Protocol: as §2, §3

HeLa cells [4] = conditions: background statement, 'in vivo'; cited from earlier work
HeLa cell polymerase α [5] = molecular target: T1, HeLa cell polymerase α; conditions: background statement; no other mammalian cell DNA polymerase inhibited; cited from earlier work

Compound: COc1ccc(Nc2cc(=O)[nH]c(=O)[nH]2)cc1 [GW-17E, 6-(p-methoxyanilo)uracil]
- effect on HeLa cell polymerase α (in words) (HeLa cell polymerase α [1]): not effected
- CMP Incorporated, Pol α (HeLa cell polymerase α [1]): 15,217 CMP
- CMP 3H--dGMP inc. [2]: 6,980 CMP
- CMP Incorporated, TdT [2]: 4,964 CMP
- effect on HeLa cell polymerase γ (in words) (HeLa cell polymerase γ): not effected
- CMP Incorporated, Pol γ (HeLa cell polymerase γ): 7,223 CMP
- effect on HeLa cell polymerase β (in words) (HeLa cell polymerase β): not effected
- CMP Incorporated, Pol β (HeLa cell polymerase β): 5,492 cpm

Compound: CCCCc1ccc(Nc2cc(=O)[nH]c(=O)[nH]2)cc1 [GW-11D, 6-(p-butylanilino)uracil]
- CMP 3H--dGMP inc. [2]: 10,925 CMP

Compound: Nc1ccc(Nc2cc(=O)[nH]c(=O)[nH]2)cc1 [GW-18C, 6-(p-aminoanilo)uracil]
- growth of L1210 cells (in words) (L1210 cells): not inhibited
- effect on HeLa cell polymerase α (in words) (HeLa cell polymerase α [1]): not effected
- CMP Incorporated, Pol α (HeLa cell polymerase α [1]): 15,417 CMP
- growth of HeLa cells (in words) (HeLa cells [3]): not inhibited
- CMP 3H--dGMP inc. [2]: 5,198 CMP
- CMP Incorporated, TdT [2]: 3,102 CMP
- effect on HeLa cell polymerase γ (in words) (HeLa cell polymerase γ): not effected
- CMP Incorporated, Pol γ (HeLa cell polymerase γ): 7,165 CMP
- EL-4 proliferation (in words) (EL-4; 400 μM, 1% DMSO): inhibited
- inhibition at 400 µM (EL-4; Mus musculus, EL4, EL-4, at 72 hours, read-out: maximal growth inhibition): 80%
- effect on HeLa cell polymerase β (in words) (HeLa cell polymerase β): not effected
- CMP Incorporated, Pol β (HeLa cell polymerase β): 5,218 cpm

Compound: O=c1cc(NCCc2ccccc2)[nH]c(=O)[nH]1 [GW-7C, 6-(phenethylamino)uracil]
- CMP 3H--dGMP inc. [2]: 12,391 CMP

Compound: CC(=O)Nc1ccc(CNc2cc(=O)[nH]c(=O)[nH]2)cc1 [GW-16C, 6-(p-acetamidobenzylamino)uracil]
- CMP 3H--dGMP inc. [2]: 14,160 CMP

Compound: O=c1cc(Nc2ccc3c(c2)CCC3)[nH]c(=O)[nH]1 [GW-17B, 6-(3',4'-trimethyleneanilino)uracil]
- CMP 3H--dGMP inc. [2]: 12,383 CMP

Compound: Cc1ccc(Nc2cc(=O)[nH]c(=O)[nH]2)cc1CO [GW-28D]
- TdT inhibition (in words) [2]: not inhibitory

Compound: 6-(p-methoxybenzyl)-6-aminouracil [GW-33E]
- CMP 3H--dGMP inc. [2]: 11,988 CMP

Compound: O=c1cc(NCC2CCCCC2)[nH]c(=O)[nH]1 [GW-20B, 6-(cyclohexylmethylamino)uracil]
- CMP 3H--dGMP inc. [2]: 11,296 CMP

Compound: CCCCCNc1cc(=O)[nH]c(=O)[nH]1 [GW-18E, 6-(n-pentylamino)uracil]
- CMP 3H--dGMP inc. [2]: 11,674 CMP

Compound: O=c1cc(Nc2cccc3ccccc23)[nH]c(=O)[nH]1 [GW-28A, 6-(d-naphthylamino)uracil]
- CMP 3H--dGMP inc. [2]: 12,038 CMP

Compound: O=c1cc(NC2CCCCC2)[nH]c(=O)[nH]1 [GW-18B, 6-(cyclohexylamino)uracil]
- CMP 3H--dGMP inc. [2]: 13,442 CMP

Compound: CC(C)CCNc1cc(=O)[nH]c(=O)[nH]1 [GW-22A, 6-(iso-pentylamino)uracil]
- CMP 3H--dGMP inc. [2]: 12,005 CMP

Compound: O=c1cc(NCc2ccccc2)[nH]c(=O)[nH]1 [GW-7B, 6-(benzylamino)uracil]
- CMP 3H--dGMP inc. [2]: 12,780 CMP

Compound: O=c1cc(Nc2ccccc2)[nH]c(=O)[nH]1 [GW-9E, 6-anilinouracil]
- CMP 3H--dGMP inc. [2]: 10,350 CMP

Compound: O=c1cc(Nc2cccc(O)c2)[nH]c(=O)[nH]1 [GW-23A]
- TdT inhibition (in words) [2]: not inhibitory

Compound: O=c1cc(Nc2ccc(O)cc2)[nH]c(=O)[nH]1 [GW-22E, 6-(p-hydroxyanilino)uracil]
- CMP 3H--dGMP inc. [2]: 21,760 CMP

Compound: CCCCc1ccc(Nc2cc(=O)[nH]c(=O)[nH]2)cc1 [6-(p-n-butylanilino) uracil]
- inhibition of HeLa cell division and DNA synthesis (in words) (HeLa cells [4]): selective inhibitor
- inhibition of DNA polymerase alpha of HeLa cells (in words) (HeLa cell polymerase α [5]): specific inhibitor
